We go through two molecules from patent publication US20190327961A1, “STABLE SOLID COMPOSITION BASED ON AN AROMATIC COMPOUND AND USES THEREOF” (priority 2016, published 2019).

One assay has as its system Penicillium digitatum. The assay is described as follows: Drenching and waxing of clementines infected by injection of spores. To be noted: fruits waxed only (batches 3 and 4). The assay is classed as in vivo, clementines (Afourar variety).
Assay [1] deals with rot of clementines. The assay is described as follows: Drenching and waxing of non-infected, experimentally damaged clementines. To be noted: washed then waxed, 27° C. The format is in vivo, clementines (Afourar variety).
In assay [2] the test system is rot of clementines. Nature of the assay: Tracking of the rot rate of clementines in a packing station. The assay is classed as in vivo, clementines (Afourar variety).
Assay [3] deals with E. coli. The assay is described as follows: Antibacterial action compared with glutaraldehyde in 96-well microplates. The assay is classed as cell-based. Particulars: for bacterial growth (optical density, 600-nm wavelength): E. coli, 37° C., 24 hours.
The test system of assay [4] is E. coli. Nature of the assay: Disinfection of an artificially contaminated fibroscope. Particulars: fibroscope contaminated with E. coli, disinfectant at (1/10).

Take `C=CCOC(Cn1ccnc1)c1ccc(Cl)cc1Cl` (stereo not shown) [imazalil]: the “day after infection on which rot begins” value in the assay on Penicillium digitatum (P. digitatum injected, 20° C.) is reported as “starting from the fourth day”. Moreover, in the assay with Penicillium digitatum (after 7 days), the “diameter of the rot” value came to 2.55 cm. In addition, the “Percentage of the Rotten Surface on the Fruits” value in the assay on rot of clementines [1] (4 D) is listed as 0%; with rot of clementines [1] (6 D), 7%; in the assay with rot of clementines [1] (8 D), 11%; with rot of clementines [1] (10 D), 17%; in the assay with rot of clementines [1] (12 D), 29%; with rot of clementines [1] (14 D), 38%. In the assay with rot of clementines [1] (16 D), the “Percentage of the Rotten Surface on the Fruits” value is given as 44%. Also, the “Percentage of Rotten Fruits” value was found to be 2.63% in the assay with rot of clementines [2] (Storage at 8° C., Week 1); 1.35% in the assay with rot of clementines [2] (Storage at 8° C., Week 2); 2.16% in the assay on rot of clementines [2] (Storage at 8° C., Week 3); 4.67% with rot of clementines [2] (Storage at 8° C., Week 4); 7.78% in the assay with rot of clementines [2] (Storage at 25° C., Week 1); 6.91% in the assay on rot of clementines [2] (Storage at 25° C., Week 2). In addition, the “Percentage of Rotten Fruits” value was 9.68% in the assay on rot of clementines [2] (Storage at 25° C., Week 3) and 8.43% in the assay on rot of clementines [2] (Storage at 25° C., Week 4).

Consider `O=CCCCC=O` [Glutaraldehyde, glutaraldehyde], for which the “inhibiting minimal concentration (CMI)” value with E. coli [3] (E. coli suspension on the order of 10^8 UFC/ml, expressed as dilution) is listed as “obtained only with the pure disinfectant”. Moreover, the “bacterial growth (optical density, 600-nm wavelength)” value with E. coli [3] (concentration 1) was 0; with E. coli [3] (concentration 1/10) it was 0.13 ± 0.002; in the assay with E. coli [3] (concentration 1/100), 0.15 ± 0.002; with E. coli [3] (concentration 1/250), 0.17 ± 0.003; in the assay on E. coli [3] (concentration 1/500), 0.20 ± 0.002; with E. coli [3] (concentration 1/750), 0.20 ± 0.002. Further, the “bacterial growth (optical density, 600-nm wavelength)” value in the assay with E. coli [3] (concentration 1/1,000) is recorded as 0.22 ± 0.012; in the assay on E. coli [3] (concentration 1/2,000), 0.28 ± 0.035; with E. coli [3] (concentration 1/4,000), 0.34 ± 0.007; with E. coli [3] (concentration 1/8,000) it was 0.47 ± 0.034; with E. coli [3] (concentration 1/16,000), 0.50 ± 0.005. For the same molecule, the “bacterial load After Disinfection” value was “Layers” in the assay on E. coli [4] and “layer of bacteria” in the assay with E. coli [4] (listed as glutaraldehyde).
